From paper PMC8837603, “Lapcin, a potent dual topoisomerase I/II inhibitor discovered by soil metagenome guided total chemical synthesis” (Nature Communications, 2022)
“Also recorded” adds a separate entry of the source.

Legend:
A549 cells = experiment: cells; type: cell-based, human; details: lung cancer; MTT, 48 h, 37 °C; DMEM + 10% FBS + NEAA; 2,500 cells/well; absorbance 570 nm; n = 3 biologically independent
Method: (§1) An MTT (2-(4,5-dimethylthiazol-2-yl)−2,5-diphenyltetrazolium bromide) assay was used to determine the cytotoxicity of lapcin towards diverse cancer cell lines. Lapcin was dissolved in DMSO to make a 3.2 mg/mL working solution. For each cancer line detailed in Supplementary Table 5, cells at 80-90% confluency were counted and seeded in 96-well, flat bottom microplates and incubated at 37 °C with a 5% CO2 atmosphere. Outer wells were unused to avoid edge effects. After adhering for 24 h, the medium was sterilely aspirated and replaced with 100 µL of fresh medium containing lapcin or a control compound serially diluted at concentrations ranging from 8,000 to 0.00382 ng/mL. After 48 h (37 °C, 5% CO2), the medium was carefully removed and 110 µL of freshly prepared MTT solution (10 µL of 5 mg/mL MTT in PBS (pH 7.4) premixed with 100 µL of complete medium) was added to each well. After 3 h at 37 °C with 5% CO2, 100 µL of solubilization solution (40% DMF, 16% SDS and 2% acetic acid in H2O) was added to each well and precipitated formazan crystals were allowed to dissolve for 4 h. The absorbance of each well was then measured at 570 nm using a Tecan microplate reader.

Colo205 cells = experiment: cells; type: cell-based, human; details: colon cancer; MTT, 48 h, 37 °C; RPMI-1640 + 10% FBS; 2,500 cells/well; absorbance 570 nm; n = 3 biologically independent
Method: as §1

HT29 cells = experiment: cells; type: cell-based, human; details: colon cancer; MTT, 48 h, 37 °C; DMEM + 10% FBS; 2,500 cells/well; absorbance 570 nm; n = 3 biologically independent
Method: as §1

Hela (Cervical) cells = experiment: cells; type: cell-based, human; details: cervical cancer; MTT, 48 h, 37 °C; DMEM + 10% FBS; 2,500 cells/well; absorbance 570 nm; n = 3 biologically independent
Method: as §1

NCI-H1299 cells = experiment: cells; type: cell-based, human; details: lung cancer; MTT, 48 h, 37 °C; RPMI-1640 + 10% FBS; 2,500 cells/well; absorbance 570 nm; n = 3 biologically independent
Method: as §1

U2OS (Bone) cells = experiment: cells; type: cell-based, human
Method: as §1

human cancer cell lines = experiment: MTT cell viability assay, whole cell line panel; type: cell-based
Method: as §1

Work on `CCCCCCCCCCCC(O)CC(=O)N[C@@H](C)C(=O)N[C@@H](CO)C(=O)N[C@@H](C)C(=O)Nc1ccc(-c2nc(-c3nc(C(=O)N[C@@H](CC(N)=O)C(=O)Nc4ccc(C(=O)Nc5ccc(C(=O)Nc6ccc(C(=O)O)cc6)c(O)c5OC(C)C)cc4)cs3)cs2)cc1` (stereo partly drawn) [Lapcin, 4-(4-(4-((2S)-4-amino-2-(2'-(4-((2S)-2-((2S)-3-hydroxy-2-((2S)-2-(3-hydroxytetradecanamido)propanamido)propanamido)propanamido)phenyl)-[2,4'-bithiazole]-4-carboxamido)-4-oxobutanamido)benzamido)-2-hydroxy-3-isopropoxybenzamido)benzoic acid] yielded an IC50 (A549 cells) of 2.66 nM, an IC50 (Colo205 cells) of 0.504 nM and an IC50 (HT29 cells) of 0.516 nM. The IC50 (Hela (Cervical) cells) was 0.986 nM, the IC50 (NCI-H1299 cells) was 0.0168 nM and the IC50 (U2OS (Bone) cells; bone cancer, MTT, 48 h, 37 °C, DMEM + 10% FBS + NEAA, 2,500 cells/well, absorbance 570 nm, n = 3 biologically independent) was 1.29 nM. For the same molecule, the “activity against U2OS in words” value (U2OS (Bone) cells; human bone osteosarcoma epithelial cell line U2OS) was “retained potent activity”, the “difference in IC50 between non-cancerous HEK293 and most susceptible cell lines” value (human cancer cell lines; Table 1 IC50s, therapeutic window) was “over 3 orders of magnitude” and the “potency relative to etoposide in cell lines” value (human cancer cell lines; all cell lines except NCI-H226) was “more potent than the topoisomerase II inhibitor etoposide”. For the same molecule, the “cytotoxic potency (IC50) in words” value (human cancer cell lines; breast, lung, colon, bone and cervical cancer cell lines, MTT, 48 h) was “nM to pM IC50s; also recorded: potent human cancer cell line toxin; also recorded: nM to pM (IC50) inhibitor”, the “potency relative to camptothecin in cell lines” value (human cancer cell lines; exception of HCT116, HCC1806 and NCI-H226) was “more potent than the topoisomerase I inhibitor camptothecin” and the “correlation of activity with p53 expression” value (human cancer cell lines; reported p53 expression levels of the cell lines tested) was “general correlation between lapcin activity and reported p53 expression levels”.
